Assay results from US9808003B2, “Herbicidally active 2-(substituted-phenyl)-cyclopentane-1,3-dione compounds and derivatives thereof” (Syngenta Limited, priority 2013, dated 2017).

Key:
Assay in all cases: Test 1A glasshouse assay, post-emergence herbicidal activity
Type in all cases: in vivo
[1] = tested on: Lolium perenne (LOLPE); details: Lolium perenne, 312 h, application rate 250 g/ha, 13 days after application, visual (100%=total damage; 0%=no damage), read-out: Post-emergence Herbicidal Activity (% Phytotoxicity) LOLPE
Procedure: (§1) Seeds of a variety of test species were sown in standard soil in pots. After cultivation for one day (pre-emergence) or after 8 days cultivation (post-emergence) under controlled conditions in a glasshouse (at 24/16° C., day/night; 14 hours light; 65% humidity), the plants were sprayed with an aqueous spray solution derived from the formulation of the technical active ingredient in acetone/water (50:50) solution containing 0.5% Tween 20 (polyoxyethelyene sorbitan monolaurate, CAS RN 9005-64-5). The test plants were then grown under controlled conditions in a glasshouse (at 24/16° C., day/night; 14 hours light; 65% humidity) and watered twice daily. 13 days after application of the test herbicide, for pre- and post-emergence, the test was evaluated visually for percentage phytotoxicity to the plant (where 100%=total damage to plant; 0%=no damage to plant).
(§2) Lolium perenne (LOLPE), Alopecurus myosuroides (ALOMY), Echinochloa crus-galli (ECHCG), and Avena fatua (AVEFA); these are all grassy monocotyledonous weeds.

[2] = tested on: Alopecurus myosuroides (ALOMY); details: Alopecurus myosuroides, 312 h, application rate 250 g/ha, 13 days after application, visual (100%=total damage; 0%=no damage), read-out: Post-emergence Herbicidal Activity (% Phytotoxicity) ALOMY
Procedure: as §1, §2

[3] = tested on: Echinochloa crus-galli (ECHCG); details: Echinochloa crus-galli, 312 h, application rate 250 g/ha, 13 days after application, visual (100%=total damage; 0%=no damage), read-out: Post-emergence Herbicidal Activity (% Phytotoxicity) ECHCG
Procedure: as §1, §2

[4] = tested on: Avena fatua (AVEFA); details: Avena fatua, 312 h, application rate 250 g/ha, 13 days after application, visual (100%=total damage; 0%=no damage), read-out: Post-emergence Herbicidal Activity (% Phytotoxicity) AVEFA
Procedure: as §1, §2

SMILES | pest or weed control at 250 g/ha [1] [%] | pest or weed control at 250 g/ha [2] [%] | pest or weed control at 250 g/ha [3] [%] | pest or weed control at 250 g/ha [4] [%]
Cc1cc(C)c(C2C(=O)CC(CCNC(=O)c3ccsc3)C2=O)c(C)c1 (centres unmarked) [Compound A4] | 80 | 70 | 100 | 60
Cc1cc(C)c(C2C(=O)CC(CCNC(=O)c3cccs3)C2=O)c(C)c1 (centres unmarked) [Compound A5] | 70 | 50 | 60 | 30
Cc1cc(C)c(C2C(=O)CC(CCNC(=O)c3ccc(Cl)c(Cl)c3)C2=O)c(C)c1 (centres unmarked) [Compound A6] | 90 | 30 | 90 | 60
Cc1cc(C)c(C2C(=O)CC(CCNC(=O)c3ccco3)C2=O)c(C)c1 (centres unmarked) [Compound A7] | 60 | 60 | 90 | 50
Cc1cc(C)c(C2C(=O)CC(CCNC(=O)C3CCC3)C2=O)c(C)c1 (centres unmarked) [Compound A8] | 90 | 60 | 80 | 70
Cc1cc(C)c(C2C(=O)CC(CCNC(=O)C3CCCC3)C2=O)c(C)c1 (centres unmarked) [Compound A9] | 80 | 60 | 70 | 50
CCC(=O)NCCC1CC(=O)C(c2c(C)cc(C)cc2C)C1=O (centres unmarked) [Compound A10] | 70 | 60 | 50 | 70
COc1ccccc1C(=O)NCCC1CC(=O)C(c2c(C)cc(C)cc2C)C1=O (centres unmarked) [Compound A11] | 100 | 70 | 100 | 70
Cc1cc(C)c(C2C(=O)CC(CCNC(=O)c3ccc(C(F)(F)F)cc3)C2=O)c(C)c1 (centres unmarked) [Compound A12] | 100 | 80 | 100 | 100
Cc1cc(C)c(C2C(=O)CC(CCNC(=O)c3ccc(F)c(Cl)c3)C2=O)c(C)c1 (centres unmarked) [Compound A14] | 70 | 60 | 100 | 70
Cc1cc(C)c(C2C(=O)CC(CCNC(=O)c3ccc(OC(F)(F)F)cc3)C2=O)c(C)c1 (centres unmarked) [Compound A15] | 90 | 60 | 100 | 90
Cc1cc(C)c(C2C(=O)CC(CCNC(=O)c3ccoc3)C2=O)c(C)c1 (centres unmarked) [Compound A16] | 60 | 60 | 50 | 50
Cc1cc(C)c(C2C(=O)CC(CCNC(=O)c3ccc(F)cc3F)C2=O)c(C)c1 (centres unmarked) [Compound A17] | 100 | 80 | 100 | 90
COc1ccc(C(=O)NCCC2CC(=O)C(c3c(C)cc(C)cc3C)C2=O)cc1 (centres unmarked) [Compound A18] | 90 | 60 | 100 | 80
Cc1cc(C)c(C2C(=O)CC(CCNC(=O)c3ccccc3Cl)C2=O)c(C)c1 (centres unmarked) [Compound A20] | 100 | 70 | 100 | 70
CCC(CC1CC(=O)C(c2c(C)cc(C)cc2C)C1=O)NC(=O)c1ccc(F)cc1 (centres unmarked) [Compound A21] | 100 | 90 | 100 | 90
Cc1cc(C)c(C2C(=O)CC(CCNC(=O)c3ccc(Cl)nc3)C2=O)c(C)c1 (centres unmarked) [Compound A22] | 80 | 70 | 80 | 80
Cc1cc(C)c(C2C(=O)CC(CCNC(=O)c3ccc(Cl)nc3Cl)C2=O)c(C)c1 (centres unmarked) [Compound A24] | 90 | 80 | 80 | 80

SMILES | pest or weed control at 250 g/ha [1] [%] | pest or weed control at 250 g/ha [2] [%] | pest or weed control at 250 g/ha [3] [%] | pest or weed control at 250 g/ha [4] [%]
Cc1cc(C)c(C2C(=O)CC(CCNC(=O)c3cc(Cl)nc(Cl)c3)C2=O)c(C)c1 (centres unmarked) [Compound A25] | 60 | 50 | 80 | 40
Cc1cc(C)c(C2C(=O)CC(CCNC(=O)c3cccnc3Cl)C2=O)c(C)c1 (centres unmarked) [Compound A26] | 80 | 80 | 80 | 80
Cc1cc(C)c(C2C(=O)CC(CCNC(=O)c3ccc4ccccc4n3)C2=O)c(C)c1 (centres unmarked) [Compound A27] | 70 | 80 | 100 | 90
COc1cc(C(=O)NCCC2CC(=O)C(c3c(C)cc(C)cc3C)C2=O)cc(Cl)n1 (centres unmarked) [Compound A28] | 70 | 100 | 80 | 50
Cc1cc(C)c(C2C(=O)CC(CCNC(=O)c3ccc(C(F)(F)F)nc3)C2=O)c(C)c1 (centres unmarked) [Compound A29] | 80 | 80 | 80 | 90
Cc1cc(C)c(C2C(=O)CC(CCNC(=O)C3CCOCC3)C2=O)c(C)c1 (centres unmarked) [Compound A35] | 60 | 80 | 40 | 40
Cc1cc(C)c(C2C(=O)CC(CCNC(=O)C3CCOC3)C2=O)c(C)c1 (centres unmarked) [Compound A36] | 80 | 80 | 80 | 70
Cc1cc(C)c(C2C(=O)CC(CCNC(=O)c3cccc[n+]3[O-])C2=O)c(C)c1 (centres unmarked) [Compound A37] | 90 | 100 | 80 | 80
Cc1cc(-c2ccc(Cl)cn2)cc(C)c1C1C(=O)CC(CCNC(=O)c2ccccn2)C1=O (centres unmarked) [Compound A38] | 100 | 100 | 100 | 100
Cc1cc(C)c(C2C(=O)CC(CCNC(=O)c3nc(Cl)ccc3Cl)C2=O)c(C)c1 (centres unmarked) [Compound A39] | 100 | 100 | 100 | 100
Cc1cc(C)c(C2C(=O)CC(CCNC(=O)c3nc(Cl)ccc3Br)C2=O)c(C)c1 (centres unmarked) [Compound A40] | 100 | 100 | 100 | 100
Cc1cc(C)c(C2C(=O)CC(CCNC(=O)c3ncccc3N)C2=O)c(C)c1 (centres unmarked) [Compound A41] | 70 | 70 | 60 | 70
Cc1cc(C)c(C2C(=O)CC(CCNC(=O)c3ncc(C(F)(F)F)cc3Cl)C2=O)c(C)c1 (centres unmarked) [Compound A43] | 100 | 100 | 100 | 100
Cc1cc(C)c(C2C(=O)CC(CCNC(=O)c3ncccc3Cl)C2=O)c(C)c1 (centres unmarked) [Compound A44, 3-chloro-N-[2-[2,4-dioxo-3-(2,4,6-trimethylphenyl)cyclopentyl]ethyl]pyridine-2-carboxamide] | 100 | 100 | 100 | 90
Cc1cc(C)c(C2C(=O)CC(CCNC(=O)Cc3ccccn3)C2=O)c(C)c1 (centres unmarked) [Compound A45] | 80 | 50 | 60 | 80
Cc1cc(C)c(C2C(=O)CC(CCNC(=O)c3ncccc3Br)C2=O)c(C)c1 (centres unmarked) [Compound A46] | 100 | 60 | 90 | 70
Cc1cc(C)c(C2C(=O)CC(CCNC(=O)c3cccc(Cl)n3)C2=O)c(C)c1 (centres unmarked) [Compound A47] | 100 | 80 | 100 | 90
